# Reference: patent publication US8664276B2, “Stilbene analogs and methods of treating cancer” (University of Kentucky Research Foundation, priority 2011, dated 2014)
# “Also recorded” adds a separate entry of the source.
# What was measured:
# Assay type in all cases: cell-based
# [1] = test system: Wnt target genes, Axin2 and c-Myc; test: Western blot of Wnt target proteins in LS174 CRC cells
# Experimental: Western blot. Western blots were performed using the following antibodies: β-catenin (Sigma, C2206), c-Myc (Epitomics, 1472-1), Axin2 (Cell Signaling, 2151), β-Actin (Sigma, A1978), TCF4 (Epitomics, 2114-1) and pygopus2 (Santa Cruz, sc-74878), Cyclin D1 (Cell signaling, 2926).
# (§1) Cyclin B1 levels were decreased, whereas p21^WAF1/CIP1 levels increased, consistent with the fact that p21^WAF1/CIP1 expression is repressed by c-Myc. β-catenin levels were not affected by resveratrol. Next, the mRNA levels of β-catenin target genes were analyzed using RT-PCR. Expression of survivin, Lgr5, CD44, and c-Myc were decreased in resveratrol-treated cells.
# A panel of stilbene analogs was designed and synthesized (FIGS. 2, 3, 5A and 6A). […] However, the solubility of 4d was poor and it was not effective below 10 μM concentrations (data not shown). To improve its solubility and activity, compound 4d was modified with 2′-fluoro 4e, 3′-fluoro 4f and 4′-fluoro 4g substituents (FIG. 5D). Both compounds 4e and 4f had good activity at 10 μM, (E)-4-(2-fluorostyryl)-N,N-dimethylaniline.
# (§2) Western blot and cell proliferation assay. The activity of fluorinated N,N-dialkylaminostilbenes (FIDAS or FIDAS agents) on Wnt signaling activity in cancer cells were analyzed by Western blot with antibodies against Wnt target genes, such as c-Myc, Axin2. The effects of FlDAS agents on cancer cell growth were analyzed using Cell Viability Analyzer (Beckman Coulter, Vi-Cell XR). These assays have been described previously (see Zhang et al., J. of Med. Chem. 54, 1288-1297 (2011)).
# [2] = test system: β-catenin target genes; test: RT-PCR of β-catenin target genes in LS174 cells; settings: RT-PCR
# Experimental: RT-PCR. LS174 cells were treated with DMSO or Wnt inhibitors. After 36 h, RNA was isolated using the RNeasy kit (Qiagen). RT-PCR was performed as described in Zhang et al., Mol Cell Biol 2006, 26, 2055-2064. The following primers were used: β-actin: 5′-CAACCGCGAGAAGATGAC-3′ (SEQ ID NO:01), 5′-AGGAAGGCTGGAAGAGTG-3′ (SEQ ID NO:02); surivivin: 5′-[…]-3′ (SEQ ID NO:03), 5′-[…]-3′ (SEQ ID NO:04); c-Myc: 5′-TGGGCTGTGAGGAGGTTTG-3′ (SEQ ID NO:05), 5′-TATGTGGAGCGGCTTCTCG-3′ (SEQ ID NO:06); Axin2: 5′-[…]-3′ (SEQ ID NO:07), 5′-[…]-3′ (SEQ ID NO:08); TCF4: 5′-[…]-3′ (SEQ ID NO:09), 5′-[…]-3′ (SEQ ID NO:10); pygopus2: 5′-GGCCGGTCTGCAAATGAAG-3′ (SEQ ID NO:11), 5′-TCCACCTCCAGTGCTGTAG-3′ (SEQ ID NO:12); Lgr5: 5′-[…]-3′ (SEQ ID NO:13), 5′-[…]-3′ (SEQ ID NO:14); CD44: 5′-[…]-3′ (SEQ ID NO:15), 5′-[…]-3′ (SEQ ID NO:16); Ki67: 5′-[…]-3′ (SEQ ID NO:17), 5′-[…]-3′ (SEQ ID NO:18).
# as §1
# [3] = test system: LS174 CRC cells; test: CRC cell proliferation assay (Vi-Cell)
# Experimental: Luciferase and cell proliferation assay. HEK293T cells were transiently transfected in a 12-well plate with 0.2 μg of the Super8xTOPFlash reporter and 0.05 μg of Renilla luciferase reporter. Culture medium was changed after 12 h. After 6 h, cells were treated with DMSO or Wnt inhibitors for 12 h, and then treated with 25 mM LiCl or Wnt conditioned medium. After 12 h, cells were harvested and luciferase activity measured by Dual-luciferase Reporter Assay System (Promega, Madison Wis.). All conditions were done in triplicate and each experiment was carried out at least two times. For cell proliferation assay, CRC cells were treated with DMSO or inhibitors for 2d and 4d. The cell numbers and viability were analyzed by Vi-Cell Cell Viability Analyzer.
# as §2
smiles,measurement,setting,value
"CN(C)c1ccc(/C=C/c2c(F)cccc2F)cc1 [4r, (E)-4-(2,6-Difluorostyryl)-N,N-dimethylaniline]",repression of Wnt target genes at 10 μM,"[1]; 10 μM, CRC cells",repress Wnt target genes; also recorded: reduced the protein levels
same,"Wnt inhibitory activity in Western blot, qualitative or relative to a comparator",[1]; CRC cells,more active than compound 4e; also recorded: best activity
same,protein levels of TCF4 and pygopus2,[1]; CRC cells,reduced
same,inhibition of Wnt target genes at 2.5 μM,"[1]; LS174 CRC cells, 2.5 μM",significantly inhibited
same,transcription of TCF4 genes,[2],inhibited
same,transcription of Wnt target genes,[2],strongly inhibited
same,transcription of pygopus2 genes,[2],no significant effects
same,LS174 cell proliferation at nanomolar concentrations,"[3]; 0.1, 0.3 and 1 μM (FIG. 7A)",inhibited LS174 cell proliferation at nanomolar concentrations
same,CRC cell growth inhibition compared with other compounds,[3]; cell proliferation assay,more potent than compound 4e
